Like-named read-outs stand apart in the source and are kept apart here.
System: pancreatic cancer cell lines (e.g. MIA PaCa-2)
Experiment: Cell based assay, cell viability (CellTiter-Glo), pancreatic cancer cell lines
Details: Homo sapiens
How it was run: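 Read-out is ATP-dependent luminescence (CellTiter-Glo) taken after 72 h of exposure to compound at final concentrations from 0 to 2 μM. Cells were plated 24 h beforehand.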

[1] = pancreatic cancer cell line AsPC-1, 72 hours, read-out: IC50, AsPC-1
[2] = pancreatic cancer cell line BxPC-3, 72 hours, read-out: IC50, BxPC-3
[3] = pancreatic cancer cell line CFPAC-1, 72 hours, read-out: IC50, CFPAC-1
[4] = pancreatic cancer cell line Capan-1, 72 hours, read-out: IC50, Capan-1
[5] = pancreatic cancer cell line Capan-2, 72 hours, read-out: IC50, Capan-2
[6] = pancreatic cancer cell line MIA PaCa-2, 72 hours, read-out: IC50, MIA PaCa-2
[7] = pancreatic cancer cell line PANC-1, 72 hours, read-out: IC50, PANC-1

Row | SMILES | IC50 [1] [nM] | IC50 [2] [nM] | IC50 [3] [nM] | IC50 [4] [nM] | IC50 [5] [nM] | IC50 [6] [nM] | IC50 [7] [nM]
1 | CC(=O)c1c([S+]([O-])Cc2ccc(NS(C)(=O)=O)cc2)[nH]c2c(Br)ccc(Cl)c2c1=O (centres unmarked) [Compound 103, N-(4-(((3-acetyl-8-bromo-5-chloro-4-oxo-1,4-dihydroquinolin-2-yl)sulfinyl)methyl)phenyl)methane-sulfonamide] | > 2000 | > 2000 | > 10000 | > 2000 | > 2000 | > 2000 | > 2000
2 | CC(=O)c1c([S+]([O-])Cc2ccc(Cl)nc2)[nH]c2c(Br)ccc(Cl)c2c1=O (centres unmarked) [Compound 104, 3-acetyl-8-bromo-5-chloro-2-(((6-chloropyridin-3-yl)methyl)sulfinyl)quinolin-4(1H)-one] | > 2000 | > 2000 | > 10000 | 1590 | > 2000 | 790 | > 2000
3 | COCCNc1ccc(C[S+]([O-])c2[nH]c3c(Br)ccc(Cl)c3c(=O)c2C(C)=O)cn1 (centres unmarked) [Compound 105, 3-acetyl-8-bromo-5-chloro-2-(((6-((2-methoxyethyl)amino)pyridin-3-yl)methyl)sulfinyl)quinolin-4(1H)-one] | > 2000 | > 2000 | > 10000 | > 2000 | > 2000 | > 2000 | > 2000

Second part, the compound after the results:

Row | IC50 [1] [nM] | IC50 [2] [nM] | IC50 [3] [nM] | IC50 [4] [nM] | IC50 [5] [nM] | IC50 [6] [nM] | IC50 [7] [nM] | SMILES
4 | > 2000 | > 2000 | > 10000 | > 2000 | > 2000 | > 2000 | > 2000 | CC(=O)c1c([S+]([O-])Cc2nonc2C)[nH]c2c(Br)ccc(Cl)c2c1=O (centres unmarked) [Compound 106, 3-acetyl-8-bromo-5-chloro-2-(((4-methyl-1,2,5-oxadiazol-3-yl)methyl)sulfinyl)quinolin-4(1H)-one]
5 | > 2000 | > 2000 | > 10000 | > 2000 | > 2000 | > 2000 | > 2000 | CC(=O)c1c([S+]([O-])Cc2cnc3[nH]ccc3c2)[nH]c2c(Br)ccc(Cl)c2c1=O (centres unmarked) [Compound 107, 2-(((1H-pyrrolo[2,3-b]pyridin-5-yl)methyl)sulfinyl)-3-acetyl-8-bromo-5-chloroquinolin-4(1H)-one]

— patent US11464770B2, “Anticancer pharmaceutical composition” (NATIONAL CANCER CENTER, priority 2016, dated 2022)
